Assay results as given in the NIST ThermoML archive (doi:10.1021/je700224j).

Settings: Liquid

CCCCn1cc[n+](C)c1.F[P-](F)(F)(F)(F)F [1-butyl-3-methylimidazolium hexafluorophosphate]
Settings	mass density [kg/m3]
293.48 K, 1000 kPa	1369.9
293.49 K, 101.33 kPa	1369.8
293.49 K, 20000 kPa	1378.3
293.5 K, 10000 kPa	1374
293.5 K, 40000 kPa	1385.9
293.51 K, 5000 kPa	1371.7
293.51 K, 30000 kPa	1382.2
302.73 K, 101.33 kPa	1362
312.86 K, 101.33 kPa	1353.5
322.28 K, 101.33 kPa	1345.5
322.3 K, 10000 kPa	1350.6
322.3 K, 20000 kPa	1355.2
322.31 K, 1000 kPa	1346.2
322.31 K, 40000 kPa	1363.3
322.33 K, 5000 kPa	1348.2
322.33 K, 30000 kPa	1359.3
332.73 K, 101.33 kPa	1337
342.5 K, 101.33 kPa	1328.7
352.29 K, 101.33 kPa	1320.9
352.3 K, 40000 kPa	1339.8
352.31 K, 1000 kPa	1321.6
352.31 K, 10000 kPa	1326.3
352.31 K, 20000 kPa	1331.2
352.32 K, 5000 kPa	1323.7
352.34 K, 30000 kPa	1335.6
373.3 K, 5000 kPa	1306.6
373.31 K, 10000 kPa	1309.4
373.32 K, 30000 kPa	1319
373.33 K, 101.33 kPa	1303.9
373.33 K, 1000 kPa	1304.4
373.33 K, 40000 kPa	1323.3
373.34 K, 20000 kPa	1314.3
391.27 K, 10000 kPa	1294.7
391.28 K, 30000 kPa	1304.7
391.3 K, 101.33 kPa	1289.1
391.3 K, 5000 kPa	1292
391.31 K, 20000 kPa	1300
391.31 K, 40000 kPa	1309.1
391.32 K, 1000 kPa	1289.5
414.91 K, 10000 kPa	1275.6
414.92 K, 20000 kPa	1281
414.92 K, 40000 kPa	1290.5
414.93 K, 101.33 kPa	1269.7
414.93 K, 5000 kPa	1272.6
414.93 K, 30000 kPa	1285.9
414.94 K, 1000 kPa	1270.2

CCCCn1cc[n+](C)c1.F[B-](F)(F)F [1-butyl-3-methylimidazolium tetrafluoroborate]
Settings	mass density [kg/m3]
292.94 K, 101.33 kPa	1204.8
293.49 K, 10000 kPa	1208.5
293.49 K, 30000 kPa	1216.5
293.49 K, 40000 kPa	1220.4
293.5 K, 1000 kPa	1204.7
293.5 K, 20000 kPa	1212.6
293.51 K, 5000 kPa	1206.5
302.8 K, 101.33 kPa	1197.5
312.79 K, 101.33 kPa	1190.2
322.3 K, 10000 kPa	1187.7
322.3 K, 40000 kPa	1200.4
322.31 K, 1000 kPa	1183.6
322.31 K, 20000 kPa	1192
322.31 K, 30000 kPa	1196.2
322.33 K, 5000 kPa	1185.4
322.83 K, 101.33 kPa	1182.9
332.53 K, 101.33 kPa	1175.8
342.72 K, 101.33 kPa	1168.6
352.31 K, 10000 kPa	1166.5
352.32 K, 101.33 kPa	1161.7
352.32 K, 5000 kPa	1164.1
352.32 K, 20000 kPa	1171.1
352.32 K, 30000 kPa	1175.7
352.33 K, 1000 kPa	1162.1
352.33 K, 40000 kPa	1180.01
373.31 K, 5000 kPa	1149.4
373.31 K, 20000 kPa	1156.8
373.32 K, 101.33 kPa	1146.9
373.32 K, 10000 kPa	1152
373.33 K, 30000 kPa	1161.6
373.33 K, 40000 kPa	1166.1
373.34 K, 1000 kPa	1147.3
391.27 K, 1000 kPa	1135
391.29 K, 101.33 kPa	1134.5
391.29 K, 10000 kPa	1139.7
391.29 K, 20000 kPa	1144.8
391.29 K, 30000 kPa	1149.7
391.29 K, 40000 kPa	1154.4
391.31 K, 5000 kPa	1137.1
414.92 K, 101.33 kPa	1116.5
414.92 K, 5000 kPa	1119.4
414.92 K, 20000 kPa	1127.4
414.92 K, 40000 kPa	1137.4
414.93 K, 1000 kPa	1117.1
414.93 K, 10000 kPa	1122.1
414.93 K, 30000 kPa	1132.5

CCn1cc[n+](C)c1.O=S(=O)([N-]S(=O)(=O)C(F)(F)F)C(F)(F)F
Settings	mass density [kg/m3]
293.49 K, 101.33 kPa	1522.3
293.49 K, 10000 kPa	1527.8
293.49 K, 20000 kPa	1533.3
293.49 K, 30000 kPa	1538.6
293.49 K, 40000 kPa	1543.6
293.5 K, 1000 kPa	1522.9
293.5 K, 5000 kPa	1525
302.68 K, 101.33 kPa	1513.2
312.64 K, 101.33 kPa	1503.2
322.3 K, 101.33 kPa	1493.2
322.3 K, 10000 kPa	1499.5
322.3 K, 20000 kPa	1505.3
322.3 K, 40000 kPa	1516.3
322.31 K, 5000 kPa	1496.5
322.31 K, 30000 kPa	1510.9
322.32 K, 1000 kPa	1494
332.58 K, 101.33 kPa	1483.2
342.49 K, 101.33 kPa	1473.6
352.3 K, 20000 kPa	1476.5
352.3 K, 40000 kPa	1488.2
352.31 K, 10000 kPa	1470.2
352.32 K, 101.33 kPa	1463.6
352.32 K, 5000 kPa	1467
352.32 K, 30000 kPa	1482.5
352.34 K, 1000 kPa	1464.4
373.3 K, 5000 kPa	1446.5
373.3 K, 30000 kPa	1462.8
373.31 K, 1000 kPa	1443.9
373.32 K, 101.33 kPa	1443.2
373.32 K, 10000 kPa	1449.9
373.33 K, 20000 kPa	1456.5
373.33 K, 40000 kPa	1468.7
391.25 K, 1000 kPa	1426.3
391.28 K, 10000 kPa	1432.6
391.28 K, 30000 kPa	1446
391.29 K, 101.33 kPa	1425.6
391.29 K, 5000 kPa	1429
391.31 K, 20000 kPa	1439.4
391.31 K, 40000 kPa	1452.3
414.92 K, 101.33 kPa	1402.4
414.92 K, 5000 kPa	1406
414.92 K, 10000 kPa	1409.8
414.92 K, 20000 kPa	1417.2
414.92 K, 30000 kPa	1424.2
414.92 K, 40000 kPa	1430.9
414.93 K, 1000 kPa	1403.1

CCOS(=O)(=O)[O-].CCn1cc[n+](C)c1 [1-ethyl-3-methylimidazolium ethyl sulfate]
Settings	mass density [kg/m3]
292.49 K, 101.33 kPa	1242.1
293.46 K, 10000 kPa	1250.9
293.46 K, 20000 kPa	1259.3
293.47 K, 1000 kPa	1242.9
293.47 K, 5000 kPa	1246.5
293.47 K, 30000 kPa	1267.5
293.48 K, 40000 kPa	1275.4
302.61 K, 101.33 kPa	1236.7
312.47 K, 101.33 kPa	1230.7
322.3 K, 101.33 kPa	1224.4
322.31 K, 1000 kPa	1225.6
322.31 K, 5000 kPa	1229.5
322.31 K, 20000 kPa	1243.3
322.31 K, 40000 kPa	1260.6
322.32 K, 10000 kPa	1234.2
322.33 K, 30000 kPa	1252.1
332.74 K, 101.33 kPa	1218.4
342.42 K, 101.33 kPa	1212.6
352.32 K, 101.33 kPa	1206.3
352.33 K, 1000 kPa	1207.6
352.33 K, 5000 kPa	1211.8
352.33 K, 10000 kPa	1216.9
352.34 K, 20000 kPa	1226.7
352.34 K, 30000 kPa	1236
352.34 K, 40000 kPa	1245.2
373.36 K, 101.33 kPa	1194.1
373.36 K, 1000 kPa	1195
373.36 K, 5000 kPa	1199.4
373.36 K, 10000 kPa	1204.8
373.36 K, 30000 kPa	1225
373.36 K, 40000 kPa	1234.4
373.37 K, 20000 kPa	1215
391.39 K, 101.33 kPa	1183.2
391.39 K, 1000 kPa	1184.2
391.39 K, 5000 kPa	1188.8
391.39 K, 10000 kPa	1194.6
391.39 K, 30000 kPa	1215.4
391.39 K, 40000 kPa	1225.2
391.41 K, 20000 kPa	1205.1
414.94 K, 10000 kPa	1180.8
414.94 K, 20000 kPa	1192.1
414.94 K, 30000 kPa	1202.9
414.95 K, 101.33 kPa	1169.1
414.95 K, 1000 kPa	1170.2
414.95 K, 5000 kPa	1174.9
414.95 K, 40000 kPa	1213.2

CCCC[n+]1ccn(C)c1.O=S(=O)([N-]S(=O)(=O)C(F)(F)F)C(F)(F)F
Settings	mass density [kg/m3]
293.49 K, 101.33 kPa	1442.2
293.49 K, 1000 kPa	1442.8
293.49 K, 10000 kPa	1449
293.49 K, 30000 kPa	1462.1
293.49 K, 40000 kPa	1468.4
293.5 K, 5000 kPa	1445.6
293.5 K, 20000 kPa	1455.7
303.15 K, 101.33 kPa	1433
312.84 K, 101.33 kPa	1423.9
322.3 K, 10000 kPa	1422.5
322.3 K, 40000 kPa	1443.6
322.31 K, 101.33 kPa	1414.9
322.31 K, 1000 kPa	1415.6
322.31 K, 20000 kPa	1429.8
322.31 K, 30000 kPa	1436.8
322.32 K, 5000 kPa	1418.7
332.78 K, 101.33 kPa	1405.1
342.98 K, 101.33 kPa	1395.5
352.31 K, 5000 kPa	1390.9
352.31 K, 10000 kPa	1395.1
352.32 K, 20000 kPa	1403
352.32 K, 30000 kPa	1410.7
352.32 K, 40000 kPa	1418
352.33 K, 101.33 kPa	1386.6
352.33 K, 1000 kPa	1387.5
373.3 K, 30000 kPa	1392.7
373.31 K, 5000 kPa	1371.6
373.31 K, 20000 kPa	1384.5
373.32 K, 101.33 kPa	1367.1
373.32 K, 1000 kPa	1368
373.32 K, 10000 kPa	1376
373.33 K, 40000 kPa	1400.4
391.27 K, 1000 kPa	1351.3
391.28 K, 101.33 kPa	1350.4
391.28 K, 10000 kPa	1359.8
391.28 K, 20000 kPa	1368.8
391.28 K, 30000 kPa	1377.3
391.28 K, 40000 kPa	1385.4
391.3 K, 5000 kPa	1355.1
414.91 K, 20000 kPa	1348.1
414.91 K, 40000 kPa	1365.8
414.92 K, 101.33 kPa	1328.5
414.92 K, 1000 kPa	1329.5
414.92 K, 5000 kPa	1333.6
414.92 K, 10000 kPa	1338.6
414.92 K, 30000 kPa	1357.2
